Entries after “also recorded” stand apart in the source; their conditions may differ.
Assays:
[1] = test system: MAPK, AKT, NF-κB pathways; experiment: Western blot of MAPK, AKT and NF-κB signaling in adult pig articular chondrocytes; type: cell-based; settings: 24 hours
Description: FIGS. 30A-30B. […] (FIG. 30A) Adult pig articular chondrocytes were cultured for 24 hours with the indicated cytokines or RCGD 423 and the levels of pSTAT3 and MYC were measured with respect to histone H3. Representative data for other proteins in the MAPK (p38 and MEK1/2), AKT (phospho-AKT; pAKT) or NF-KB (NF-KB p65) are also shown. (FIG. 30B) Levels of transcription of genes indicative of a catabolic response were determined via quantitative PCR in adult pig articular chondrocytes treated with OSM, IL-6, TNF-α, LIF or RCGD 423. Data are represented at mean±SD.
Cartilage degeneration is generally considered a feed-forward process, in which small losses of chondrocytes result in microenvironmental changes including induction of an inflammatory response and other pro-catabolic events (Hunziker, 2002). In turn, these alterations in the joint milieu promote production of matrix degrading proteins including MMPs (collagenases) and proteins of the ADAMTS family (aggrecanases). LIF has been implicated in promoting this cycle of matrix destruction during the pathogenesis of osteoarthritis (Hui et al., 2000; Lotz et al., 1992), although its role in this process has been controversial. In order to better understand the mechanism of action of LIF, RCGD 423 and known pro-inflammatory cytokines in the promotion of degeneration, we stimulated adult pig articular chondrocytes with these molecules and quantitated the levels of activated downstream proteins that mediate the cellular signaling response (FIG. 30A).
Treated and non-treated ells were lysed in RIPA Lysis and Extraction Buffer (Pierce, Rockford, Ill.) containing protease inhibitors (Pierce) followed by sonication with a 15-second pulse at a power output of 2 using the VirSonic 100 (SP Industries Company, Warminster, Pa.). Protein concentrations were determined by BCA protein assay (Pierce). Proteins were resolved with SDS-PAGE utilizing 4-15% Mini-PROTEAN TGX Precast Gels and transferred to Trans-Blot Turbo Transfer Packs with a 0.2-μm pore-size nitrocellulose membrane. The SDS-PAGE running buffer, 4-15% Mini-PROTEAN TGX Precast Gels, Trans-Blot Turbo Transfer Packs with a 0.2-μm pore-size nitrocellulose membrane were purchased from Biorad (Hercules, Calif.). Nitrocellulose membranes were blocked in 5% nonfat milk in 0.05% (v/v) Tween 20 (PBST) (Corning, Manassas, Va.). Membranes were then incubated with primary antibodies phospho-STAT3 (#9131), MYC (#5605), NF-κB p65 (#D14E12), pAKT (#9272) Histone 3 (#9715) from Cell Signaling, (Danvers, Mass.); MEK1/2 (ab70613) and p38 (ab795) from Abcam (Cambridge, Mass.) overnight. After washing in PBS containing 0.05% (v/v) Tween 20 (PBST), membranes were incubated with Goat anti-Rabbit IgG (H+L) Secondary Antibody (Thermo Scientific Rockford, Ill.). After washing, membranes were developed with the Clarity Western ECL Blotting Substrate (Hercules, Calif.).

[2] = test system: adult human articular chondrocytes; experiment: Survival / apoptosis (Annexin V) of adult articular chondrocytes; type: cell-based; settings: for chondrocytes survival in adult explants: LIF 50 ng/mL, CRM-423 10 uM
Description: FIGS. 28A-28I. Small molecule-mediated activation of a fetal-like molecular and functional phenotype in adult articular cartilage. (FIG. 28A) Adult human articular chondrocytes were incubated with or without RCGD 423 and levels of MYC and pSTAT3 were quantified relative to histone H3. (FIG. 28B) Levels of MYC and pSTAT3 protein were measured in pig adult articular chondrocytes to determine the effects of RCGD 423 in a dose- and time-dependent manner; histone H3 was used as a loading control. (FIG. 28C) Migration of adult human articular chondrocytes in a Transwell® assay was assessed in the presence and absence of RCGD 423. (FIG. 28D) Adult human articular chondrocytes were incubated with or without RCGD 423 in hydrogel for 24 hours and then apoptotic cells were quantitated via flow cytometry for Annexin V. (FIG. 28E) Single human adult articular chondrocytes were cultured for 5 weeks with or without stimulation with RCGD 423. (FIG. 28F) Proliferation in explants of adult pig articular cartilage in the absence or presence of RCGD 423 as shown by EdU incorporation. Explants of adult pig articular cartilage were incubated with EdU in the presence or absence of LIF to detect proliferating cells. Scale bars represent 25 μm. (FIG. 28G) Metabolic activity of human adult articular chondrocytes (ECAR and OCR) was assessed in the presence or absence of RCGD 423; the response in these parameters to stimulation with LIF is shown for comparison. […]
Only early passages of chondrocytes (passage 0-2) were used for experimentation to avoid de-differentiation and loss of cartilage phenotype (Wu et al., 2014). Cartilage explants were made using 1, 2 or 8 mm biopsy punch and wet weight of each explant determined prior to experimentation. […]
TdT-mediated dUTP nick-end labeling (TUNEL) or EdU assays were performed by using in situ cell death detection kit (TUNEL, Roche Diagnostics GmbH, Germany) or Click-iT® Assay Kit obtained from Invitrogen (Carlsbad, Calif.), respectively, as described in the manufacturer's protocol. […] After staining sections were analyzed using fluorescent microscopy. […]

Q: How did the “activation of AKT” value [1] turn out when “LIF: interleukin 6 (IL-6)-class cytokine” was run?
A: stimulated the activation; also recorded: strong activation

Q: What about the “activation of the MAPK pathway” value [1] of the same compound?
A: weaker response

Q: And the “chondrocytes survival in adult explants” value [2]?
A: increase; also recorded: promoted survival

Q: How did the NF-κB protein [1] turn out when Brc1ccc(Nc2nc(-c3ccccc3)cs2)cc1 [RCGD 423, N-(4-Bromophenyl)-4-phenyl-1,3-thiazol-2-amine] was run?
A: did not activate AKT or stabilize

Q: And the “activation of AKT” value [1]?
A: did not activate; also recorded: no activation

Q: And the “activation of the MAPK pathway” value [1]?
A: weakly activating

Q: What about the “chondrocytes survival in adult explants” value [2] of the same compound?
A: increase

Q: What about the “apoptosis (Annexin V)” value ([2]; adult human articular chondrocytes in hydrogel, 24 hours) of the same compound?
A: decreased

From patent US11072592B2, “Small molecules that enable cartilage rejuvenation” (The Regents of the University of California, priority 2015, dated 2021)
